Experimental data: patent US20220202739A1, “ENDOCANNABINOID MIMETIC AND ANTI-INFLAMMATORY COMPOUND CONTAINING COMPOSITIONS, METHODS OF PREPARATION AND USES THEREOF” (priority 2019, published 2022)

system: CERS3; assay: Gene expression custom microarray, pooled keratinocyte line (Example 3): CERS3; assay type: cell-based, human; conditions: pooled keratinocytes, 20 ppm, 24 hr
Protocol: Cell cultures: Received and began culture of pooled keratinocyte line from Promocell (C-12006; Lot #448Z026). Cells were seeded into a 75 cm2 flask and 2 6 well dishes for expansion and exposure per manufacturer's protocol using Keratinocyte Growth Medium (C2011B), Keratinocyte Supplement Mix (C39016) and CaCl (C34005). 2 ml of prepared solution were added to each of the 6 wells and 7 ml was added to the 75 cm2 flask.
Experimental phase: When the appropriate quantity of cells were grown, they were detached as described above, but at the final step were seeded into each well of one or more 6 well dishes. Each well received 2 ml of the cells suspended in suspension so they were seeded equally. The dishes were returned to the incubator until 85-95% confluency is reached.
It was at this stage that all wells were rinsed in PBS after aspirating the growth media. The compound(s) to be tested were previously mixed into a suitable solvent (e.g., DMSO or ethanol) that can be diluted to the desired concentration of test compound (10 μl) in the culture wells without exceeding maximum solvent concentrations and adversely effecting cell viability, and mixed with Basal Keratinocyte Media. NOTE: Standard maximum levels of solvent are 0.1% for DMSO and 0.5% for ETOH. The concentration for each tested compound/natural extract is generally listed in the left-hand column of Table 4. For certain compositions (e.g., compositions 15 and 16), other concentrations were used and are noted in the body of Table 4.
Every 2 wells on the 6 well plate served as a biological replicate for the purposes of RNA isolation and genetic expression evaluations making each 6 well dish an n=3 for the test compound contained in the media. […]
At the end of the 24 hr time period, the plates were removed from the incubator, the test media aspirated, and the cells rinsed with PBS. […] Allow 1 minute for saturation of the membrane and then centrifuge for 2 minutes to complete the RNA elution. • Quantify the quantity of RNA and store at −20 C° until use (no more than 1 month) […]

| SMILES | ↑CERS3 gene expression, fold increase or decrease vs untreated cells [fold] |
| --- | --- |
| CC(C)[C@]12O[C@H]1[C@@H]1O[C@]13[C@]1(O[C@H]1C[C@H]1C4=C(CC[C@@]13C)C(=O)OC4)[C@@H]2O [Triptolide] | −1.5 |
| CCCCCCCCCCCCCCCC(=O)NCCO [N-palmitoylethanolamide] | 2 |
| C=C(C)[C@@H]1CCC(C)=C[C@H]1c1c(O)cc(CCCCC)cc1O [CBD, cannabidiol, reference compound] | 1.7 |
